From the supplement of paper PMC10307832

Experiments:
Assay in all cases: relative viability (nuclei count vs DMSO), 5 days (fraction); higher = more cells survive
HCC-366 = system: HCC-366
In short: (§1)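 Lung cancer cell lines were seeded in 1536-well plates and dosed by pin tool the next day, with either a single drug or a fixed anchor-drug dose combined with five library-drug doses (not always all listed) spaced in √10 steps. Five days later, one step fixed the cells and stained their nuclei (final 0.05% Triton X-100, 1% formaldehyde, 1 ug/ml Hoechst), and nuclei were counted on 4× images. Relative viability is the nuclei count in treated wells divided by the count in vehicle wells, and each value is the median of duplicate plates.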

NCI-H2023 = system: NCI-H2023
In short: as §1

NCI-H460 = system: NCI-H460
In short: as §1

NCI-H2342 = system: NCI-H2342
In short: as §1

LOU-NH91 = system: LOU-NH91
In short: as §1

CAL-12T = system: CAL-12T
In short: as §1

LU99A = system: LU99A
In short: as §1

NCI-H1734 = system: NCI-H1734
In short: as §1

SK-LU-1 = system: SK-LU-1
In short: as §1

NCI-H441 = system: NCI-H441
In short: as §1

NCI-H838 = system: NCI-H838
In short: as §1

BEN = system: BEN
In short: as §1

NCI-H1975 = system: NCI-H1975
In short: as §1

NCI-H1355 = system: NCI-H1355
In short: as §1

NCI-H358 = system: NCI-H358
In short: as §1

NCI-H2085 = system: NCI-H2085
In short: as §1

NCI-H1651 = system: NCI-H1651
In short: as §1

NCI-H1437 = system: NCI-H1437
In short: as §1

COR-L23 = system: COR-L23
In short: as §1

NCI-H1563 = system: NCI-H1563
In short: as §1

NCI-H1650 = system: NCI-H1650
In short: as §1

NCI-H1793 = system: NCI-H1793
In short: as §1

## CC(=O)O[C@@]12CO[C@@H]1C[C@H](O)[C@@]1(C)C(=O)[C@H](O)C3=C(C)[C@@H](OC(=O)[C@H](O)[C@@H](NC(=O)OC(C)(C)C)c4ccccc4)C[C@@](O)([C@@H](OC(=O)c4ccccc4)[C@H]21)C3(C)C [Docetaxel] + N=C(N)NC(=N)NCCc1ccccc1 [Phenformin] (partner 250 µM)
HCC-366; first compound 0.0002 µM
  relative viability: 0.599
HCC-366; first compound 0.000632 µM
  relative viability: 0.253
HCC-366; first compound 0.002 µM
  relative viability: 0.147
HCC-366; first compound 0.006325 µM
  relative viability: 0.0428
HCC-366; first compound 0.02 µM
  relative viability: 0.0275
NCI-H2023; first compound 0.0002 µM
  relative viability: 0.358
NCI-H2023; first compound 0.000632 µM
  relative viability: 0.292
NCI-H2023; first compound 0.002 µM
  relative viability: 0.118
NCI-H2023; first compound 0.006325 µM
  relative viability: 0.0961
NCI-H2023; first compound 0.02 µM
  relative viability: 0.0806
NCI-H460; first compound 0.0002 µM
  relative viability: 0.481
NCI-H460; first compound 0.000632 µM
  relative viability: 0.351
NCI-H460; first compound 0.002 µM
  relative viability: 0.0311
NCI-H460; first compound 0.006325 µM
  relative viability: 0.0221
NCI-H460; first compound 0.02 µM
  relative viability: 0.0125
NCI-H2342; first compound 0.0002 µM
  relative viability: 0.478
NCI-H2342; first compound 0.000632 µM
  relative viability: 0.596
NCI-H2342; first compound 0.002 µM
  relative viability: 0.625
NCI-H2342; first compound 0.006325 µM
  relative viability: 0.4
NCI-H2342; first compound 0.02 µM
  relative viability: 0.343
LOU-NH91; first compound 0.0002 µM
  relative viability: 0.661
LOU-NH91; first compound 0.000632 µM
  relative viability: 0.625
LOU-NH91; first compound 0.002 µM
  relative viability: 0.41
LOU-NH91; first compound 0.006325 µM
  relative viability: 0.317
LOU-NH91; first compound 0.02 µM
  relative viability: 0.269
CAL-12T; first compound 0.0002 µM
  relative viability: 0.522
CAL-12T; first compound 0.000632 µM
  relative viability: 0.305
CAL-12T; first compound 0.002 µM
  relative viability: 0.185
CAL-12T; first compound 0.006325 µM
  relative viability: 0.135
CAL-12T; first compound 0.02 µM
  relative viability: 0.118
LU99A; first compound 0.0002 µM
  relative viability: 0.811
LU99A; first compound 0.000632 µM
  relative viability: 0.656
LU99A; first compound 0.002 µM
  relative viability: 0.364
LU99A; first compound 0.006325 µM
  relative viability: 0.335
LU99A; first compound 0.02 µM
  relative viability: 0.242
NCI-H1734; first compound 0.0002 µM
  relative viability: 0.296
NCI-H1734; first compound 0.000632 µM
  relative viability: 0.338
NCI-H1734; first compound 0.002 µM
  relative viability: 0.232
NCI-H1734; first compound 0.006325 µM
  relative viability: 0.221
NCI-H1734; first compound 0.02 µM
  relative viability: 0.168
SK-LU-1; first compound 0.0002 µM
  relative viability: 0.48
SK-LU-1; first compound 0.000632 µM
  relative viability: 0.285
SK-LU-1; first compound 0.002 µM
  relative viability: 0.239
SK-LU-1; first compound 0.006325 µM
  relative viability: 0.183
SK-LU-1; first compound 0.02 µM
  relative viability: 0.115
NCI-H441; first compound 0.0002 µM
  relative viability: 0.833
NCI-H441; first compound 0.000632 µM
  relative viability: 0.889
NCI-H441; first compound 0.002 µM
  relative viability: 0.315
NCI-H441; first compound 0.006325 µM
  relative viability: 0.281
NCI-H441; first compound 0.02 µM
  relative viability: 0.197
NCI-H838; first compound 0.0002 µM
  relative viability: 0.533
NCI-H838; first compound 0.000632 µM
  relative viability: 0.386
NCI-H838; first compound 0.002 µM
  relative viability: 0.198
NCI-H838; first compound 0.006325 µM
  relative viability: 0.161
NCI-H838; first compound 0.02 µM
  relative viability: 0.108
BEN; first compound 0.0002 µM
  relative viability: 0.248
BEN; first compound 0.000632 µM
  relative viability: 0.253
BEN; first compound 0.002 µM
  relative viability: 0.307
BEN; first compound 0.006325 µM
  relative viability: 0.215
BEN; first compound 0.02 µM
  relative viability: 0.194
NCI-H1975; first compound 0.0002 µM
  relative viability: 0.406
NCI-H1975; first compound 0.000632 µM
  relative viability: 0.334
NCI-H1975; first compound 0.002 µM
  relative viability: 0.209
NCI-H1975; first compound 0.006325 µM
  relative viability: 0.148
NCI-H1975; first compound 0.02 µM
  relative viability: 0.134
NCI-H1355; first compound 0.0002 µM
  relative viability: 0.463
NCI-H1355; first compound 0.000632 µM
  relative viability: 0.402
NCI-H1355; first compound 0.002 µM
  relative viability: 0.385
NCI-H1355; first compound 0.006325 µM
  relative viability: 0.287
NCI-H1355; first compound 0.02 µM
  relative viability: 0.217
NCI-H358; first compound 0.0002 µM
  relative viability: 0.247
NCI-H358; first compound 0.000632 µM
  relative viability: 0.188
NCI-H358; first compound 0.006325 µM
  relative viability: 0.0907
NCI-H358; first compound 0.02 µM
  relative viability: 0.0664
NCI-H2085; first compound 0.0002 µM
  relative viability: 0.735
NCI-H2085; first compound 0.000632 µM
  relative viability: 0.651
NCI-H2085; first compound 0.002 µM
  relative viability: 0.461
NCI-H2085; first compound 0.006325 µM
  relative viability: 0.389
NCI-H2085; first compound 0.02 µM
  relative viability: 0.194
NCI-H1651; first compound 0.0002 µM
  relative viability: 0.266
NCI-H1651; first compound 0.000632 µM
  relative viability: 0.342
NCI-H1651; first compound 0.002 µM
  relative viability: 0.194
NCI-H1651; first compound 0.006325 µM
  relative viability: 0.087
NCI-H1651; first compound 0.02 µM
  relative viability: 0.0897
NCI-H1437; first compound 0.0002 µM
  relative viability: 0.3
NCI-H1437; first compound 0.000632 µM
  relative viability: 0.294
NCI-H1437; first compound 0.002 µM
  relative viability: 0.23
NCI-H1437; first compound 0.006325 µM
  relative viability: 0.154
NCI-H1437; first compound 0.02 µM
  relative viability: 0.123
COR-L23; first compound 0.0002 µM
  relative viability: 0.399
COR-L23; first compound 0.000632 µM
  relative viability: 0.32
COR-L23; first compound 0.002 µM
  relative viability: 0.167
COR-L23; first compound 0.006325 µM
  relative viability: 0.106
COR-L23; first compound 0.02 µM
  relative viability: 0.098
NCI-H1563; first compound 0.0002 µM
  relative viability: 0.619
NCI-H1563; first compound 0.000632 µM
  relative viability: 0.683
NCI-H1563; first compound 0.002 µM
  relative viability: 0.661
NCI-H1563; first compound 0.006325 µM
  relative viability: 0.582
NCI-H1563; first compound 0.02 µM
  relative viability: 0.479
NCI-H1650; first compound 0.0002 µM
  relative viability: 0.349
NCI-H1650; first compound 0.000632 µM
  relative viability: 0.287
NCI-H1650; first compound 0.006325 µM
  relative viability: 0.147
NCI-H1650; first compound 0.02 µM
  relative viability: 0.0956
NCI-H1793; first compound 0.0002 µM
  relative viability: 0.302
NCI-H1793; first compound 0.000632 µM
  relative viability: 0.319
NCI-H1793; first compound 0.002 µM
  relative viability: 0.322
NCI-H1793; first compound 0.006325 µM
  relative viability: 0.245
NCI-H1793; first compound 0.02 µM
  relative viability: 0.173
